Measurements taken from patent publication US9908893B2 (Latvian Institute of Organic Synthesis, priority 2013, dated 2018).

Assays:
P-glycoprotein (P-gp) = P-glycoprotein (P-gp) (Homo sapiens, UniProt P08183); test: Measurement of P-glycoprotein activity: rhodamine 123 accumulation in MES-SA and MES-SA/Dx5 cells; details: for inhibition of MDR transport proteins (P-gp, MRP1, BCRP1), summary in words: summary of the P-gp, MRP1 and BCRP1 efflux assays; for MDR, EC50, P-gp: rhodamine 123 accumulation, doxorubicin resistant MES-SA/Dx5 cells
Protocol: (§1) Thieno[2,3-b]pyridines of the formula (I) were tested to reveal MDR-blocking activity.
About 50,000 cells/well of the human uterine sarcoma cell line MESSA and MES-SA/Dx5 were seeded into the 96-well plates and incubated for 24 h. The MDR modulators were incubated with the cells for 15 min. […] The EC50 values were calculated using the program Graph Pad Prism® 4.0.

[1] = tested on: A7R5 (rat aorta smooth muscle) cells; test: Intracellular Ca2+ measurements, Fluo-4 NW Calcium Assay Kit, KCl-induced [Ca2+]i increase; assay type: cell-based; details: for IC50: Rattus norvegicus, A7R5, read-out: Ca^2+ A7R5, IC50; for Ca^2+ antagonist effect compared with Verapamil: relative to Verapamil; for Ca^2+ antagonist effect compared with Verapamil / Ca^2+ A7R5, IC50: A7R5 cells; for Ca^2+ A7R5, IC50: KCl (50 mM) induced [Ca2+]i increase, compounds 0.8 to 100 μM
Protocol: Changes in intracellular [Ca^2+] concentration were studied using A7R5 (rat aorta smooth muscle) cells and Fluo-4 NW Calcium Assay Kit (“Invitrogen”, Sweden) according to manufacturer's instructions.
Changes in intracellular [Ca^2+]i concentration were studied using Fluo-4 NW Calcium Assay Kit (“Invitrogen”, Sweden) accordingly to manufacturer's instructions. The A7R5 (rat aorta smooth muscle) cells were grown at 37° C. in a humidified atmosphere with 5% CO2/95% air in DMEM medium containing 2 mM glutamine and supplemented with 10% FBS. The cells were seeded into 96 well plate at 10,000 cells/well and incubated for 72 h. The cells were loaded with […] for 45 min. The Fura-4NW loaded cells were pre-incubated in the dark for 15 minutes with tested compounds at concentrations from 0.8 to 100 μM. Then A7R5 cells were pre-treated with 1.5 mM CaCl2 for 5 minutes and KCl (50 mM) was added to A7R5 cells to induce [Ca^2+]i increase. Amlodipine, the well-known calcium channel inhibitor was used as the positive control.

[2] = Basal toxicity test, neutral red, alternative LD50 calculated from IC50; details: mouse, LD50, alternative LD50 calculated by formula from IC50 in NIH 3T3 cells
Protocol: A low therapeutic index of chemotherapy agents is due to affecting not only cancer formation but also normal cells.
9,000 NIH 3T3 cells/well were placed into 96-well plates for 24 h and then exposed to the test compound over a range of eight concentration (1-1000 μg/ml) for 24 h. Upon that, the cells were incubated with the neutral red dye for 4 h and then OD was determined at 540 nm. […] The IC50 values were calculated using the program Graph Pad Prism® 4.0

MRP1 = MRP1 (Homo sapiens, UniProt P33527); test: cell-based; details: for MDR, EC50, MRP1: calcein AM assay, DOX resistant H69AR cells
Protocol: as §1
About 60,000 cells/well of the human lung carcinoma cell line H69 and H69AR were seeded into the 96-well plates and incubated for 24 h. The compounds were incubated with the cells for 15 min. […] The EC50 values was calculated using the program Graph Pad Prism® 4.0

BCRP1 = target: T1, BCRP1 (Homo sapiens, UniProt Q9UNQ0); test: cell-based; details: for MDR, EC50, BCRP1: Hoechst 33342, mitoxantrone resistant MES-SA/MX2 cells
T1 sequence (Q9UNQ0 1-655): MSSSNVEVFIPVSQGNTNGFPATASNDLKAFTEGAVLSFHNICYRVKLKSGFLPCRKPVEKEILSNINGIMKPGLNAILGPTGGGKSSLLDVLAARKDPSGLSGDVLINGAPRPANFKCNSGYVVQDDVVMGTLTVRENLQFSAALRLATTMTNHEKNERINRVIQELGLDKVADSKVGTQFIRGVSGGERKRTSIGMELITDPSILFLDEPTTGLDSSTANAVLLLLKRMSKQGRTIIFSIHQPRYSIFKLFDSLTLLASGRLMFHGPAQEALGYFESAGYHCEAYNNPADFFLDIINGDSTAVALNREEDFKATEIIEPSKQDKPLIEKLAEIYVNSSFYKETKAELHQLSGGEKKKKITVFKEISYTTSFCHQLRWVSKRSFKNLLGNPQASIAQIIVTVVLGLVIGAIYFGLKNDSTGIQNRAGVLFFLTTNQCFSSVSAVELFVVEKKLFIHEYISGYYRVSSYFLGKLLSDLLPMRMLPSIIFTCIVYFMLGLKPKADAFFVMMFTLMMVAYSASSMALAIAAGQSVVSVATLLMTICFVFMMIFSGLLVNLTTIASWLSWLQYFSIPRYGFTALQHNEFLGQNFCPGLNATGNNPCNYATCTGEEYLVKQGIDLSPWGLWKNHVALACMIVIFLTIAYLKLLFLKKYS
Protocol: as §1
About 50,000 cells/well of the MESSA and MES-SA/MX2 were seeded into the 96-well plates and incubated for 24 h. The MDR modulators were incubated with the cells for 15 min. […] The EC50 values were calculated using the program Graph Pad Prism® 4.0

Chain of MRP1 (P33527 whole entry): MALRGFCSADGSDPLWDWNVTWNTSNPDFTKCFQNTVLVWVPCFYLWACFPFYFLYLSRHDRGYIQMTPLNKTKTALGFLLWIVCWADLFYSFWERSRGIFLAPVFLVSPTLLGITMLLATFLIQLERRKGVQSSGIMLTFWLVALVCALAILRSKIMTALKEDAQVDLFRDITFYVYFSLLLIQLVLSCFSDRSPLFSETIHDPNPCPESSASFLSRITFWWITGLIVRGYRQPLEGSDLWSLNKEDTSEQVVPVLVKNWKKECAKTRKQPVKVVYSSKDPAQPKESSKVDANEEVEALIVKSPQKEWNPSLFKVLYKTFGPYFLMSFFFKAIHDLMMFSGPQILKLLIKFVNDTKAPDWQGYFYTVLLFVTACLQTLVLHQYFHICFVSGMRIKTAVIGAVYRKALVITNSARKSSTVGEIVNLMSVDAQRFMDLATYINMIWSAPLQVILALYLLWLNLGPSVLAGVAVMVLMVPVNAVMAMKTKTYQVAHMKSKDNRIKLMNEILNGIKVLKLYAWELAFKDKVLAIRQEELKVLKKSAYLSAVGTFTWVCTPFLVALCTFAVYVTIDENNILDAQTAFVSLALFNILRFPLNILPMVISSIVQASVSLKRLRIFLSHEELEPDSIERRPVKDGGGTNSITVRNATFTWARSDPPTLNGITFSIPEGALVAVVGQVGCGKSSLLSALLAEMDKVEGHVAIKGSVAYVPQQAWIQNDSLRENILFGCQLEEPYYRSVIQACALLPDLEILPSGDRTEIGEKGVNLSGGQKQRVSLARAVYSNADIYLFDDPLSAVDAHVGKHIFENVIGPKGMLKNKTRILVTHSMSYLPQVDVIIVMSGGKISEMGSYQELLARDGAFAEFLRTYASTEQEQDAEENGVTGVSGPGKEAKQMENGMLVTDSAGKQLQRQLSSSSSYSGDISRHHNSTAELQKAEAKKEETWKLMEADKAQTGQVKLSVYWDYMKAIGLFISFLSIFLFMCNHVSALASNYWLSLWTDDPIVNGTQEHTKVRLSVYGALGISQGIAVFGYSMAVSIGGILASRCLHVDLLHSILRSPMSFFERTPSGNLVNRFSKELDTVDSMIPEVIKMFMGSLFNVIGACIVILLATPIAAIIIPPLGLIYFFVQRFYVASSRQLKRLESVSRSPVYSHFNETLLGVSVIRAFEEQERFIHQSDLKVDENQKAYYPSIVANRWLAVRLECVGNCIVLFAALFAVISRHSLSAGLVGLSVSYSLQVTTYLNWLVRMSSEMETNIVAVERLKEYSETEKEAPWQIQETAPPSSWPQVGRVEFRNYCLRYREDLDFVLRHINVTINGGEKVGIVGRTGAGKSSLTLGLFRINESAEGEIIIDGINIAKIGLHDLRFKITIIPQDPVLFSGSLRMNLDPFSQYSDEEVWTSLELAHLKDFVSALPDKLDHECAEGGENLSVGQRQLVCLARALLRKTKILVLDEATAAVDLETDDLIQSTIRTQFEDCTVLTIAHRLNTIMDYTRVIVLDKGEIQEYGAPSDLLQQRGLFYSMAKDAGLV
Chain of P-glycoprotein (P-gp) (P08183 whole entry): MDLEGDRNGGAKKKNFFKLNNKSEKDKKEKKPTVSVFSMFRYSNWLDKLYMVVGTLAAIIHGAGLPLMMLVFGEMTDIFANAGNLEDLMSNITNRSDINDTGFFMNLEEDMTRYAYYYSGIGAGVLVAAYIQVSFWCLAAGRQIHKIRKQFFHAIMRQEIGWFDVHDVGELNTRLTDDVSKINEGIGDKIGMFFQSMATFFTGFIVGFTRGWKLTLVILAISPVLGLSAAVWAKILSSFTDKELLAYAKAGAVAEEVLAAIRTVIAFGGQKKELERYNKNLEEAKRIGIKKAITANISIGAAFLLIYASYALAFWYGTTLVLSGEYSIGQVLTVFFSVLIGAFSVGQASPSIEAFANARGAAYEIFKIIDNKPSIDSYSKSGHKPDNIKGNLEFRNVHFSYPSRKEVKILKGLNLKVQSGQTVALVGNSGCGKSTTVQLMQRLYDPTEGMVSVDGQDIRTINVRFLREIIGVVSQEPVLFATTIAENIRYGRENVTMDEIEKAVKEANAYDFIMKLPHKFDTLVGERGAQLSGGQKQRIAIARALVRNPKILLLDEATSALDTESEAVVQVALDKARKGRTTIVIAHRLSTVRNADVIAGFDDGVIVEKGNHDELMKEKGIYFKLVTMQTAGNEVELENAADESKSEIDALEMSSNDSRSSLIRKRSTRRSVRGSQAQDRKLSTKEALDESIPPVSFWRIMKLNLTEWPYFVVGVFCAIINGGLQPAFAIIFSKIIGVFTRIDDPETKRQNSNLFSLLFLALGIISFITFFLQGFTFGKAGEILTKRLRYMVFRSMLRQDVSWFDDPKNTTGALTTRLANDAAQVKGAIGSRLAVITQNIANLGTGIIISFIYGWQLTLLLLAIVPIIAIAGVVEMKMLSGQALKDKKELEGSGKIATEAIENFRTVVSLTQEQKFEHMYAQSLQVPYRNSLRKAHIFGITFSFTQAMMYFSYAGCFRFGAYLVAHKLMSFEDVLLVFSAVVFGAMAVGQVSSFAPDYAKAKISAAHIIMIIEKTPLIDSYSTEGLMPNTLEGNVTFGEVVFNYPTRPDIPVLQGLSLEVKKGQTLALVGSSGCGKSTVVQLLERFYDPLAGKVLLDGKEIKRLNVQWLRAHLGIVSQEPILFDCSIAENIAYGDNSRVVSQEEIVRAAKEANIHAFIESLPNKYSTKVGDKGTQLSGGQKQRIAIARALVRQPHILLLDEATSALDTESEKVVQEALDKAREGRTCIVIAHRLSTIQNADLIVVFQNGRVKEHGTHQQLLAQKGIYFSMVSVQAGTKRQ

Compound: COC(=O)c1c(C)nc2sc(C(=O)c3ccc(OC)cc3)c(N)c2c1-c1cc(OC)c(OC)c(OC)c1 [Compound 10, 3-Amino-2-(4-methoxybenzoyl)-6-methyl-4-(3,4,5-trimethoxyphenyl)thieno[2,3-b]pyridine-5-carboxylic acid methyl ester]
- inhibition of MDR transport proteins (P-gp, MRP1, BCRP1), summary in words (P-glycoprotein (P-gp)): inhibit three MDR transport proteins: P-gp, MRP1 and BCRP1
- IC50 [1]: 9 ± 0.7 µM
- Ca^2+ antagonist effect compared with Verapamil [1]: more than ten times lower
- LD50 at 24 h [2]: > 2000 mg/kg

Compound: COC(=O)c1c(C)nc2sc(C(=O)c3ccc(OC)cc3OC)c(N)c2c1-c1cc(OC)c(OC)c(OC)c1 [Compound 11, 3-Amino-2-(2,4-dimethoxybenzoyl)-6-methyl-4-(3,4,5-trimethoxyphenyl)thieno[2,3-b]pyridine-5-carboxylic acid methyl ester]
- inhibition of MDR transport proteins (P-gp, MRP1, BCRP1), summary in words (P-glycoprotein (P-gp)): inhibit three MDR transport proteins: P-gp, MRP1 and BCRP1
- IC50 [1]: 18 ± 1 µM
- Ca^2+ antagonist effect compared with Verapamil [1]: more than ten times lower
- LD50 at 24 h [2]: > 2000 mg/kg

Compound: CCOC(=O)c1c(C)nc2sc(C(=O)c3ccc(OC)cc3)c(N)c2c1-c1ccc(N(C)C)cc1 [Compound 29, 3-Amino-4-(4-dimethylaminophenyl)-2-(4-methoxybenzoyl)-6-methylthieno[2,3-b]-pyridine-5-carboxylic acid ethylester]
- inhibition of MDR transport proteins (P-gp, MRP1, BCRP1), summary in words (P-glycoprotein (P-gp)): selectively inhibit P-gp and BCRP1
- IC50 [1]: 35 ± 3 µM
- LD50 at 24 h [2]: > 2000 mg/kg

Compound: CCCCOC(=O)c1c(C)nc2sc(C(=O)c3ccc(OC)cc3)c(N)c2c1-c1cc(OC)c(OC)c(OC)c1 [Compound 30, 3-Amino-2-(4-methoxybenzoyl)-6-methyl-4-(3,4,5-trimethoxyphenyl)thieno[2,3-b]-pyridine-5-carboxylic acid butyl ester]
- IC50 [1]: 5 ± 0.7 µM
- LD50 at 24 h [2]: > 2000 mg/kg

Compound: COCCOC(=O)c1c(C)nc2sc(C(=O)c3ccc(OC)cc3)c(N)c2c1-c1ccc(OC)cc1 [Compound 31, 3-Amino-2-(4-methoxybenzoyl)-4-(4-methoxyphenyl)-6-methylthieno[2,3-b]-pyridine-5-carboxylic acid 2-methoxyethyl ester]
- IC50 [1]: 21 ± 4 µM
- LD50 at 24 h [2]: > 2000 mg/kg

Compound: COCCOC(=O)c1c(C)nc2sc(C(=O)c3ccccc3)c(N)c2c1-c1cc(OC)c(OC)c(OC)c1 [Compound 32, 3-Amino-2-benzoyl-6-methyl-4-(3,4,5-trimethoxyphenyl)thieno[2,3-b]pyridine-5-carboxylic acid 2-methoxyethyl ester]
- IC50 [1]: 2.2 ± 0.3 µM
- Ca^2+ antagonist effect compared with Verapamil [1]: more than ten times lower
- LD50 at 24 h [2]: > 2000 mg/kg

Compound: COCCOC(=O)c1c(C)nc2sc(C(=O)c3cccc(OC)c3)c(N)c2c1-c1cc(OC)c(OC)c(OC)c1 [Compound 33, 3-Amino-2-(3-methoxybenzoyl)-6-methyl-4-(3,4,5-trimethoxyphenyl)thieno[2,3-b]-pyridine-5-carboxylic acid 2-methoxyethyl ester]
- inhibition of MDR transport proteins (P-gp, MRP1, BCRP1), summary in words (P-glycoprotein (P-gp)): selectively inhibit P-gp and BCRP1
- IC50 [1]: 6.2 ± 0.7 µM
- LD50 at 24 h [2]: > 2000 mg/kg

Compound: COCCOC(=O)c1c(C)nc2sc(C(=O)c3ccc(OC)cc3)c(N)c2c1-c1cc(OC)c(OC)c(OC)c1 [Compound 34, 3-Amino-2-(4-methoxybenzoyl)-6-methyl-4-(3,4,5-trimethoxyphenyl)thieno[2,3-b]-pyridine-5-carboxylic acid 2-methoxyethyl ester]
- IC50 [1]: 3.1 ± 0.4 µM
- Ca^2+ antagonist effect compared with Verapamil [1]: more than ten times lower
- LD50 at 24 h [2]: > 2000 mg/kg

Compound: COCCOC(=O)c1c(C)nc2sc(C(=O)c3ccc(OC)cc3OC)c(N)c2c1-c1cc(OC)c(OC)c(OC)c1 [Compound 35, 3-Amino-2-(2,4-dimethoxybenzoyl)-6-methyl-4-(3,4,5-trimethoxyphenyl)-thieno[2,3-b]pyridine-5-carboxylic acid 2-methoxyethyl ester]
- IC50 [1]: 9 ± 1 µM
- Ca^2+ antagonist effect compared with Verapamil [1]: more than ten times lower
- LD50 at 24 h [2]: > 2000 mg/kg

Compound: CCOC(=O)c1c(-c2cc(OC)c(OC)c(OC)c2)nc2sc(C(=O)c3ccc(OC)cc3)c(N)c2c1-c1cc(OC)c(OC)c(OC)c1 [Compound 39, 3-Amino-4,6-bis-(3,4,5-trimethoxyphenyl)-2-(4-methoxybenzoyl)thieno[2,3-b]-pyridine-5-carboxylic acid ethyl ester]
- Ca^2+ A7R5, IC50 [1]: No effect
- LD50 at 24 h [2]: > 2000 mg/kg

Compound: CCOC(=O)c1c(-c2cc(OC)c(OC)c(OC)c2)nc2sc(C(=O)c3cc(OC)c(OC)c(OC)c3)c(N)c2c1-c1cc(OC)c(OC)c(OC)c1 [Compound 40, 3-Amino-4,6-bis-(3,4,5-trimethoxyphenyl)-2-(3,4,5-trimethoxybenzoyl)-thieno[2,3-b]pyridine-5-carboxylic acid ethyl ester]
- Ca^2+ A7R5, IC50 [1]: No effect
- LD50 at 24 h [2]: > 2000 mg/kg

Compound: COC(=O)c1c(C)nc2sc(C(=O)c3ccc4ccccc4c3)c(N)c2c1-c1cc(OC)c(OC)c(OC)c1 [Compound 41, 3-Amino-6-methyl-2-(naphthalene-2-carbonyl)-4-(3,4,5-trimethoxyphenyl)-thieno[2,3-b]pyridine-5-carboxylic acid methyl ester]
- EC50 (P-glycoprotein (P-gp)): 10.5 ± 0.7 µM
- MDR, EC50, MRP1 (MRP1): No effect
- EC50 (BCRP1): 800 ± 200 nM
- IC50 [1]: 18 ± 1.4 µM
- LD50 at 24 h [2]: > 2000 mg/kg

Compound: CCOC(=O)c1c(C)nc2sc(C(=O)c3ccc(OC)cc3)c(N)c2c1-c1ccc2c(c1)OCO2 [Compound 42, 3-Amino-4-(benzo[1,3]dioxol-5-yl)-2-(4-methoxybenzoyl)-6-methylthieno[2,3-b]-pyridine-5-carboxylic acid ethyl ester]
- EC50 (P-glycoprotein (P-gp)): 20.4 ± 0.1 µM
- EC50 (MRP1): 24.8 ± 1.2 µM
- EC50 (BCRP1): 2300 ± 400 nM
- IC50 [1]: 18 ± 1 µM
- LD50 at 24 h [2]: 2010 mg/kg

Compound: CCOC(=O)c1c(C)nc2sc(C(=O)c3ccc(OC)cc3)c(N)c2c1-c1ccco1 [Compound 43, 3-Amino-4-(furan-2-yl)-2-(4-methoxybenzoyl)-6-methylthieno[2,3-b]pyridine-5-carboxylic acid ethyl ester]
- MDR, EC50, P-gp (P-glycoprotein (P-gp)): No effect
- MDR, EC50, MRP1 (MRP1): No effect
- MDR, EC50, BCRP1 (BCRP1): No effect

Compound: COc1cc(-c2cc(-c3cc(OC)c(OC)c(OC)c3)c3c(N)c(C(=O)c4ccc(Cl)cc4)sc3n2)cc(OC)c1OC [Compound 47, 3-Amino-4,6-bis-(3,4,5-trimethoxyphenyl)-2-(4-chlorobenzoyl)thieno[2,3-b]-pyridine]
- EC50 (P-glycoprotein (P-gp)): 31.4 ± 0.8 µM
- MDR, EC50, MRP1 (MRP1): No effect
- EC50 (BCRP1): 14500 ± 3500 nM
- LD50 at 24 h [2]: > 2000 mg/kg

Compound: COc1ccc(C(=O)c2sc3nc(-c4cc(OC)c(OC)c(OC)c4)cc(-c4cc(OC)c(OC)c(OC)c4)c3c2N)cc1 [Compound 48, 3-Amino-4,6-bis-(3,4,5-trimethoxyphenyl)-2-(4-methoxybenzoyl)thieno[2,3-b]-pyridine]
- EC50 (P-glycoprotein (P-gp)): 32.5 ± 2.1 µM
- MDR, EC50, MRP1 (MRP1): No effect
- MDR, EC50, BCRP1 (BCRP1): No effect
- Ca^2+ A7R5, IC50 [1]: No effect
- LD50 at 24 h [2]: 3080 mg/kg

Compound: CN(C)C(=O)CCSC(SCCC(=O)O)c1cccc(/C=C/c2ccc3ccc(Cl)cc3n2)c1 (centres unmarked) [MK-571, reference compound]
- MDR, EC50, P-gp (P-glycoprotein (P-gp)): No effect
- Ca^2+ A7R5, IC50 [1]: No effect
- LD50 at 24 h [2]: 752 mg/kg
